Columns and labels:
[1] = molecular target: T1, Alpha-1A adrenergic receptor (Homo sapiens, UniProt P35348); test: Agonist activity at human cloned adrenergic alpha-1A receptor expressed in CHO cells assessed as calcium mobilization by FLIPR; type: functional, cell-based
T1 sequence (P35348 whole entry): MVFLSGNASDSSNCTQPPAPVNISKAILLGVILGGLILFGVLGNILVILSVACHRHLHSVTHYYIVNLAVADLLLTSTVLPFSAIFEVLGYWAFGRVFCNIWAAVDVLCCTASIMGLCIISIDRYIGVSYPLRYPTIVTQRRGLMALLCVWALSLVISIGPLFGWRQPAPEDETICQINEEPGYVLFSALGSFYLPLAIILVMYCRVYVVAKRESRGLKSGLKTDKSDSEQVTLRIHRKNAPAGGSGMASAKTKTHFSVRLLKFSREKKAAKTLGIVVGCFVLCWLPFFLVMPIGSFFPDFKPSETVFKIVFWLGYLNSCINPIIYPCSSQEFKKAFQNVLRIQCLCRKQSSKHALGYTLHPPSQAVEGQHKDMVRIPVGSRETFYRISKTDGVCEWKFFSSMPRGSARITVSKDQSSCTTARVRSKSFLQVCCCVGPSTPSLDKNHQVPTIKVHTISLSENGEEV

[2] = molecular target: T2, Alpha-1A adrenergic receptor (Homo sapiens) (UniProt P35348); test: Agonist activity at human cloned adrenergic alpha-1A receptor expressed in CHO cells assessed as calcium mobilization by FLIPR relative to phenylephrine; type: functional, cell-based
T2 sequence (whole entry): T1 sequence (P35348 whole entry)

[3] = molecular target: T3, Alpha-1B adrenergic receptor (Homo sapiens, UniProt P35368); test: Agonist activity at human cloned adrenergic alpha-1B receptor expressed in CHO cells assessed as calcium mobilization by FLIPR; type: functional, cell-based
T3 sequence (P35368 whole entry): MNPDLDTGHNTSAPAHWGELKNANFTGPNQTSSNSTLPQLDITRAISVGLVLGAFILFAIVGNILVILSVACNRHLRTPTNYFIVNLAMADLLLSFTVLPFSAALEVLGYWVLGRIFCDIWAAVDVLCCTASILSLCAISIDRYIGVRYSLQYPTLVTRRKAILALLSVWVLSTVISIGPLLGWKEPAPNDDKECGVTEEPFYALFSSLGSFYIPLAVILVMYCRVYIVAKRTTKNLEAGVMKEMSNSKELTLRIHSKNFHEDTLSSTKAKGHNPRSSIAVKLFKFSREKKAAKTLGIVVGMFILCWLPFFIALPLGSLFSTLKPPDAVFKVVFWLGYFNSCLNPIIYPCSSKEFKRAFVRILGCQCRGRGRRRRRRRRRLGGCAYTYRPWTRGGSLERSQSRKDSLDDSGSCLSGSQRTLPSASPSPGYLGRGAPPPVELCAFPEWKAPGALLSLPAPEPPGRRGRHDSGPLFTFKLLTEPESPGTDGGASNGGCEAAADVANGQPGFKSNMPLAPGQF

[4] = molecular target: T4, Alpha-1D adrenergic receptor (Homo sapiens, UniProt P25100); test: Agonist activity at human cloned adrenergic Alpha-1D receptor expressed in CHO cells assessed as calcium mobilization by FLIPR; type: functional, cell-based
T4 sequence (P25100 whole entry): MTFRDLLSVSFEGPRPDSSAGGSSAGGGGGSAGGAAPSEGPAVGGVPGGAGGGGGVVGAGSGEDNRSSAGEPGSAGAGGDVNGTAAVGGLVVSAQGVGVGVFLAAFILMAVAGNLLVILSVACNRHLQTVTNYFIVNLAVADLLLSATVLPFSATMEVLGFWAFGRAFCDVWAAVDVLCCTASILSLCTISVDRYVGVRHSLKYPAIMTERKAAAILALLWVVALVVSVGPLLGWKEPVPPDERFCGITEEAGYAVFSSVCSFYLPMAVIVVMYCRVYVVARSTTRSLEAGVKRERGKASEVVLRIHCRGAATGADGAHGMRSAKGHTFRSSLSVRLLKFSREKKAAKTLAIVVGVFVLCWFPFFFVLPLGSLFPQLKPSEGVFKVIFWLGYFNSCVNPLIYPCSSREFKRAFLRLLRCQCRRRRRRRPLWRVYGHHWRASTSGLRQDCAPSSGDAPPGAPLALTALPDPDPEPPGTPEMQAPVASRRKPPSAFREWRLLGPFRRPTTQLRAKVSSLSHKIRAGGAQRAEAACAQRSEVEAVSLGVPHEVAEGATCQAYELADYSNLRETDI

[5] = molecular target: T5, Alpha-2A adrenergic receptor (Homo sapiens, UniProt P08913); test: Agonist activity at human cloned adrenergic alpha-2A receptor expressed in CHOK1 cells by beta-lactamase reporter gene assay; type: functional, cell-based, CHO-K1
T5 sequence (P08913 whole entry): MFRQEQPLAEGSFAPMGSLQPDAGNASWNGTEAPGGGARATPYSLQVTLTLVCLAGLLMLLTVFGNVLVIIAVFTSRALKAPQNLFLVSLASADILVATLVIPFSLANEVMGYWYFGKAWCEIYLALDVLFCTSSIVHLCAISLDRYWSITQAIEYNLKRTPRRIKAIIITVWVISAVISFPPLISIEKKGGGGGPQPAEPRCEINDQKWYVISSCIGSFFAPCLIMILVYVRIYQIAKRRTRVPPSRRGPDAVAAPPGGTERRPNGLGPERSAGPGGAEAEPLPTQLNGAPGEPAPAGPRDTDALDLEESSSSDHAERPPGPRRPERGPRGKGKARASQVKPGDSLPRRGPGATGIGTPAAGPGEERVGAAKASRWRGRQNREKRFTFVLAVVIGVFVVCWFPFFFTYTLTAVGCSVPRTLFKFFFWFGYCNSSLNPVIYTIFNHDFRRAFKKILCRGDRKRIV

[6] = molecular target: T6, Alpha-1D adrenergic receptor (Homo sapiens) (UniProt P25100); test: Agonist activity at human cloned adrenergic Alpha-1D receptor expressed in CHO cells assessed as calcium mobilization by FLIPR relative to phenylephrine; type: functional, cell-based
T6 sequence (whole entry): T4 sequence (P25100 whole entry)

[7] = molecular target: T7, Alpha-1B adrenergic receptor (Homo sapiens) (UniProt P35368); test: Agonist activity at human cloned adrenergic Alpha-1B receptor expressed in CHO cells assessed as calcium mobilization by FLIPR relative to phenylephrine; type: functional, cell-based
T7 sequence (whole entry): T3 sequence (P35368 whole entry)

[8] = molecular target: T8, Alpha-2A adrenergic receptor (Homo sapiens) (UniProt P08913); test: Agonist activity at human cloned adrenergic alpha-2A receptor expressed in CHOK1 cells by beta-lactamase reporter gene assay relative to dexmeditomidine; type: functional, cell-based; conditions: CHO-K1
T8 sequence (whole entry): T5 sequence (P08913 whole entry)

| Structure (SMILES) | EC50 [1] [µM] | Emax [2] [%] | EC50 [3] [µM] | EC50 [4] [µM] | EC50 [5] [µM] | Emax [6] [%] | EC50 ([3]; cho) [µM] | EC50 ([4]; cho) [µM] | EC50 ([5]; cho-k1) [µM] | Emax [7] [%] | Emax [8] [%] |
| --- | --- | --- | --- | --- | --- | --- | --- | --- | --- | --- | --- |
| Clc1ccc2c(c1-c1ccn[nH]1)CCC2c1ncc[nH]1 (stereo not drawn) | 0.322 | 40 | > 10 | > 10 | > 10 |  |  |  |  |  |  |
| c1cc(-c2ncco2)c2c(c1)C(c1ncc[nH]1)CC2 (stereo not drawn) | 0.17 | 63 | > 10 | 1.39 | > 10 | 38 |  |  |  |  |  |
| CS(=O)(=O)Nc1cccc2c1CCCC2c1ncc[nH]1 (stereo in doubt; 17) [listing 1 of 2 here] | 0.234 |  |  |  |  |  | > 10 | > 10 | > 10 |  |  |
| CCCS(=O)(=O)Nc1cccc2c1CCC2c1ncc[nH]1 (stereo not drawn) | 1.34 | 54 | > 10 | > 10 |  |  |  |  |  |  |  |
| Cn1ccc(-c2cccc3c2CCC3c2ncc[nH]2)n1 (stereo not drawn) | > 1.3 | 19 | > 10 | > 10 | > 10 |  |  |  |  |  |  |
| c1cc(-c2ccn[nH]2)c2c(c1)C(c1ncc[nH]1)CC2 (stereo not drawn) |  | 83 |  |  |  | 57 |  |  |  | 32 |  |
| Cn1cc(-c2cccc3c2CCC3c2ncc[nH]2)cn1 (stereo not drawn) | > 2.9 | 12 | > 10 | > 10 | > 10 |  |  |  |  |  |  |
| Clc1ccc2c(c1-c1cn[nH]c1)CCC2c1ncc[nH]1 (stereo not drawn) | 0.078 |  | > 10 | > 10 | > 10 |  |  |  |  |  |  |
| Cc1ccc2c(c1NS(C)(=O)=O)CCC2c1ncc[nH]1 (stereo not drawn) | 0.033 | 83 | > 10 | > 10 |  |  |  |  |  |  |  |
| COc1cccc2c1CCC2c1ncc[nH]1 (stereo not drawn) | 0.032 | 65 | > 10 | > 10 | 0.027 |  |  |  |  |  | 100 |
| c1cncc(-c2cccc3c2CCC3c2ncc[nH]2)c1 (stereo not drawn) | 2.06 | 36 | > 10 | > 10 | 4.58 |  |  |  |  |  | 25 |
| CNC(=O)c1cccc2c1CCC2c1ncc[nH]1 (stereo not drawn) | 2.2 | 59 | > 10 | > 10 | 4.34 |  |  |  |  |  | 44 |
| COc1c(C)ccc2c1CCC2c1ncc[nH]1 (stereo not drawn) | 0.167 | 40 | > 10 | > 10 | 0.327 |  |  |  |  |  | 89 |
| Cc1n[nH]cc1-c1cccc2c1CCC2c1ncc[nH]1 (stereo not drawn) |  | 91 |  |  |  | 66 |  |  |  | 14 |  |
| Cc1[nH]ncc1-c1cccc2c1CCC2c1ncc[nH]1 (stereo not drawn) | 0.003 |  | 0.902 | 0.634 | > 10 |  |  |  |  |  |  |
| CS(=O)(=O)Nc1cccc2c1CCCC2c1ncc[nH]1 (stereo in doubt; 17a) [listing 1 of 2 here] |  | 79 |  |  |  |  |  |  |  |  |  |
| Cc1c(OCC2=NCCN2)ccc(Cl)c1NS(C)(=O)=O [DABUZALGRON] |  | 60 | > 10 | > 10 | > 10 |  |  |  |  |  |  |

| Structure (SMILES) | EC50 [1] [µM] | Emax [2] [%] | EC50 [3] [µM] | EC50 [4] [µM] | EC50 [5] [µM] | Emax [6] [%] | EC50 ([3]; cho) [µM] | EC50 ([4]; cho) [µM] | EC50 ([5]; cho-k1) [µM] | Emax [7] [%] | Emax [8] [%] |
| --- | --- | --- | --- | --- | --- | --- | --- | --- | --- | --- | --- |
| Cn1nccc1-c1cccc2c1CCC2c1ncc[nH]1 (stereo not drawn) | 0.278 | 58 | > 10 | > 10 | > 10 |  |  |  |  |  |  |
| c1cc(-c2cn[nH]c2)c2c(c1)C(c1ncc[nH]1)CC2 (stereo not drawn) | 0.014 | 84 | > 10 | 0.319 | > 10 | 52 |  |  |  |  |  |
| CS(=O)(=O)Nc1cccc2c1CCC2c1ncc[nH]1 (stereo not drawn) | 0.07 | 87 | > 10 | > 10 | > 10 |  |  |  |  |  |  |
| COc1c(Cl)ccc2c1CCC2c1ncc[nH]1 (stereo not drawn) | 0.451 | 24 | > 10 | > 10 |  |  |  |  |  |  |  |
| CS(=O)(=O)Nc1cccc2c1CCCC2c1ncc[nH]1 (stereo in doubt; 17b) [listing 1 of 2 here] |  | 47 |  |  |  |  |  |  |  |  |  |
| c1cc(-c2cc[nH]n2)c2c(c1)C(c1ncc[nH]1)CC2 (stereo not drawn) | 0.052 |  | 0.6 | 0.336 | > 10 |  |  |  |  |  |  |
| c1cc(-c2nccs2)c2c(c1)C(c1ncc[nH]1)CC2 (stereo not drawn) | 0.426 | 64 | > 10 | 3.19 | > 10 | 27 |  |  |  |  |  |
| CCS(=O)(=O)Nc1cccc2c1CCC2c1ncc[nH]1 (stereo not drawn) | 0.032 | 86 | > 10 | > 10 | > 10 |  |  |  |  |  |  |
| CS(=O)(=O)Nc1cccc2c1CCCC2c1ncc[nH]1 (stereo in doubt; 17b) [listing 2 of 2 here] | 2.15 |  | > 10 | > 10 | > 10 |  |  |  |  |  |  |
| c1ccc2c(c1)CCC2c1ncc[nH]1 (stereo not drawn) | 0.473 | 54 | > 10 | > 10 |  |  |  |  |  |  |  |
| c1ccc(-c2cccc3c2CCC3c2ncc[nH]2)nc1 (stereo not drawn) | 1.15 | 53 | > 10 | > 10 | > 10 |  |  |  |  |  |  |
| Cc1oncc1-c1cccc2c1CCC2c1ncc[nH]1 (stereo not drawn) | 0.111 | 63 | > 10 | > 10 | > 10 |  |  |  |  |  |  |
| c1ccc2c(c1)CCCC2c1ncc[nH]1 (stereo not drawn) | 0.385 | 71 | 0.791 | 0.364 | 0.722 | 74 |  |  |  | 58 | 105 |
| CS(=O)(=O)Nc1cccc2c1CCCC2c1ncc[nH]1 (stereo in doubt; 17a) [listing 2 of 2 here] | 0.142 |  |  |  |  |  | > 10 | > 10 | > 10 |  |  |
| CS(=O)(=O)Nc1cccc2c1CCCC2c1ncc[nH]1 (stereo in doubt; 17) [listing 2 of 2 here] |  | 79 |  |  |  |  |  |  |  |  |  |
| CCS(=O)(=O)Nc1cccc(Cc2c[nH]cn2)c1 | 0.009 | 96 | > 10 | > 10 | > 10 |  |  |  |  |  |  |
